In this assay the target is T1, Prolyl endopeptidase FAP (Homo sapiens, UniProt Q12884).
T1 sequence (Q12884 whole entry): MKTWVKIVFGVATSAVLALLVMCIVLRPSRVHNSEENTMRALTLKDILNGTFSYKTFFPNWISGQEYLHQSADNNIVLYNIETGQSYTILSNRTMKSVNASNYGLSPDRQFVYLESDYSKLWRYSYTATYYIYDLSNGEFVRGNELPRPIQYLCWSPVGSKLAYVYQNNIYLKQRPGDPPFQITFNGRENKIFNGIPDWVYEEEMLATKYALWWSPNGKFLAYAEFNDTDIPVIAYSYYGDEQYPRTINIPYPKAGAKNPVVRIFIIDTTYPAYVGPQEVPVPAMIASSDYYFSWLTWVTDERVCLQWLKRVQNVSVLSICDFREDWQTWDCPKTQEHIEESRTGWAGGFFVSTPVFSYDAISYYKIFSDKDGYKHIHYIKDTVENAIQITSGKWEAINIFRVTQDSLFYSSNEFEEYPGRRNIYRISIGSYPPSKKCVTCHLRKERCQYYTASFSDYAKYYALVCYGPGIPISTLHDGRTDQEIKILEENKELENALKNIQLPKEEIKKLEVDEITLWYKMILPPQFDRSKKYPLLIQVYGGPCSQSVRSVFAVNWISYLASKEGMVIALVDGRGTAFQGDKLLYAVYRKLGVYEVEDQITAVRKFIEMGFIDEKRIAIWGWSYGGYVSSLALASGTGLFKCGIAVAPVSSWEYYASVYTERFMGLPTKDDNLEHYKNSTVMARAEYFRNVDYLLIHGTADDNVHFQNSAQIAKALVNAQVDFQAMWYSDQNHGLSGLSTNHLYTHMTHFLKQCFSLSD
Nature of the assay: hFAP Binding Assay. The note with it: for kon: read-out: kon (M-1-s-1).

Molecules are shown by their SMILES.

Procedure: Table 1: Compounds were tested in a direct binding assay using 8K surface plasmon resonance biosensor (GE Healthcare) at 20° C. Immobilization of hFAP (M39-A757) on a CMD200M sensor chip (Xantec) was performed using standard amine coupling procedure in immobilization buffer (10 mM HEPES, 150 mM NaCl, 0.05% Tween20, pH 7.4). The surface was washed with 10 mM NaOH, 1M NaCl before being activated with EDC/NHS (GE Healthcare), followed by immobilization of hFAP (in 10 mM Acetate pH 5.0). Finally, the surface was deactivated by ethanolamine. Immobilization levels of hFAP were around 4000-6000 RU. The reference spot was treated as described, omitting the injection of hFAP. Compound concentration series were injected over the immobilized protein in increasing concentrations (2-500 nM) using single cycle kinetics in running buffer (20 mM TRIS, 150 mM NaCl, 0.05% Tween20, 1% DMSO, pH 7.4).

As for `N#C[C@@H]1CSCN1C(=O)CNC(=O)c1ccnc2ccc(N3CCOC(F)(F)C3)cc12` [US20230312550, Example 4], the koff came to 9.4e-05 s⁻¹ and the kon came out at 1.2e+06 M⁻¹ s⁻¹.

As for `CC[C@H]1COCCN1c1ccc2nccc(C(=O)NCC(=O)N3CSC[C@H]3C#N)c2c1` [US20230312550, Example 106], the koff came to 0.00014 s⁻¹ and the kon was 1.8e+06 M⁻¹ s⁻¹.

As to `CC1(C)CCN(c2ccc3nccc(C(=O)NCC(=O)N4CSC[C@H]4C#N)c3c2)C1=O` [US20230312550, Example 12], the koff was found to be 6.4e-05 s⁻¹ and the kon came to 1.9e+06 M⁻¹ s⁻¹.

Take `N#C[C@@H]1CSCN1C(=O)CNC(=O)c1ccnc2ccc(N3CCOCC3)c(Cl)c12` [US20230312550, Example 101]: the koff was 2.5e-05 s⁻¹ and the kon is 740000 M⁻¹ s⁻¹.

Regarding `CC1(CS(C)(=O)=O)CN(c2ccc3nccc(C(=O)NCC(=O)N4CSC[C@H]4C#N)c3c2)C1` [US20230312550, Example 188], the koff is 2.2e-05 s⁻¹ and the kon amounted to 2.6e+06 M⁻¹ s⁻¹.

In the case of `N#C[C@@H]1CSCN1C(=O)CNC(=O)c1ccnc2ccc(N3CC4CC(C3)O4)cc12` [US20230312550, Example 77], the koff was found to be 6.6e-05 s⁻¹ and the kon worked out at 4.8e+06 M⁻¹ s⁻¹.

For `N#C[C@@H]1CSCN1C(=O)CNC(=O)c1ccnc2ccc(N3CC(F)(CF)C3)cc12` [US20230312550, Example 157], the koff is 0.00012 s⁻¹ and the kon came to 1.9e+06 M⁻¹ s⁻¹.

As for `C[C@@H]1CN(c2ccc3nccc(C(=O)NCC(=O)N4CSC[C@H]4C#N)c3c2)CCCO1` [US20230312550, Example 64], the koff amounted to 0.00015 s⁻¹ and the on-rate constant (kon) was found to be 1.3e+06 M⁻¹ s⁻¹.

Regarding `N#C[C@@H]1CSCN1C(=O)CNC(=O)c1ccnc2ccc(N3CC(C(F)F)C3)cc12` [US20230312550, Example 28], the dissociation rate constant (koff) came to 0.00011 s⁻¹ and the kon came out at 1.1e+06 M⁻¹ s⁻¹.

Regarding `N#C[C@@H]1CSCN1C(=O)CNC(=O)c1ccnc2ccc(N3C[C@H]4CCC[C@@H](C3)O4)cc12` [US20230312550, Example 194], the koff turned out to be 6.8e-05 s⁻¹ and the kon was 1.1e+06 M⁻¹ s⁻¹.

As for `N#C[C@@H]1CSCN1C(=O)CNC(=O)c1ccnc2ccc(N3CCOC4(CCOCC4)C3)cc12` [US20230312550, Example 99], the koff amounted to 0.0002 s⁻¹ and the kon came out at 2.1e+06 M⁻¹ s⁻¹.

Regarding `CCC1(O)CN(c2ccc3nccc(C(=O)NCC(=O)N4CSC[C@H]4C#N)c3c2)C1` [US20230312550, Example 154], the koff came to 5.4e-05 s⁻¹ and the kon is 910000 M⁻¹ s⁻¹.

Turning to `Cc1ccc(-c2ccc3nccc(C(=O)NCC(=O)N4CSC[C@H]4C#N)c3c2)cn1` [US20230312550, Example 177], the koff was 5.8e-05 s⁻¹ and the on-rate constant (kon) turned out to be 100000 M⁻¹ s⁻¹.

In the case of `N#C[C@@H]1CSCN1C(=O)CNC(=O)c1ccnc2ccc(N3C4CCC3COC4)cc12` [US20230312550, Example 98], the koff is 1.5e-05 s⁻¹ and the kon is 1.6e+06 M⁻¹ s⁻¹.

As for `N#C[C@@H]1CSCN1C(=O)CNC(=O)c1ccnc2ccc(N3CC(F)(C(F)(F)F)C3)cc12` [US20230312550, Example 143], the koff is 5.7e-05 s⁻¹ and the kon is 1.6e+06 M⁻¹ s⁻¹.

Regarding `N#C[C@@H]1CSCN1C(=O)CNC(=O)c1ccnc2ccc(N3CC(F)(F)C3)cc12` [US20230312550, Example 23], the koff was 0.00018 s⁻¹ and the kon was 2.1e+06 M⁻¹ s⁻¹.

As to `N#C[C@@H]1CSCN1C(=O)CNC(=O)c1ccnc2ccc(-c3ccnc(F)c3)cc12` [US20230312550, Example 124], the koff was determined as 0.00028 s⁻¹ and the kon was 3e+06 M⁻¹ s⁻¹.

For the compound `CO[C@H]1CCN(c2ccc3nccc(C(=O)NCC(=O)N4CSC[C@H]4C#N)c3c2)C1` [US20230312550, Example 207], the koff turned out to be 5.3e-05 s⁻¹ and the kon was 4.6e+06 M⁻¹ s⁻¹.

On to `N#C[C@@H]1CSCN1C(=O)CNC(=O)c1ccnc2ccc(-c3cccnc3)cc12` [US20230312550, Example 126], for which the off-rate constant (koff) came to 0.00021 s⁻¹ and the kon worked out at 1.8e+06 M⁻¹ s⁻¹.

`N#C[C@@H]1CSCN1C(=O)CNC(=O)c1ccnc2ccc(N3C[C@H](O)C(F)(F)C3)cc12` [US20230312550, Example 224]: the koff worked out at 6.8e-05 s⁻¹ and the association rate constant (kon) came out at 3e+06 M⁻¹ s⁻¹.

Turning to `C[C@H]1COCCCN1c1ccc2nccc(C(=O)NCC(=O)N3CSC[C@H]3C#N)c2c1` [US20230312550, Example 63], the koff was 5.9e-05 s⁻¹ and the kon amounted to 4.1e+06 M⁻¹ s⁻¹.

On to `CC1(C)CCN(c2ccc3nccc(C(=O)NCC(=O)N4CSC[C@H]4C#N)c3c2)CC1` [US20230312550, Example 33], for which the koff stood at 5.2e-05 s⁻¹ and the association rate constant (kon) is 1.1e+06 M⁻¹ s⁻¹.

Turning to `COC1CN(c2ccc3nccc(C(=O)NCC(=O)N4CSC[C@H]4C#N)c3c2)C1` [US20230312550, Example 66], the koff worked out at 0.00022 s⁻¹ and the on-rate constant (kon) worked out at 2.6e+07 M⁻¹ s⁻¹.

In the case of `N#C[C@@H]1CSCN1C(=O)CNC(=O)c1ccnc2ccc(-n3ccc4c3CCCC4)cc12` [US20230312550, Example 219], the koff was found to be 0.0002 s⁻¹ and the kon came to 2.4e+06 M⁻¹ s⁻¹.

With `CC(F)(F)CC1CN(c2ccc3nccc(C(=O)NCC(=O)N4CSC[C@H]4C#N)c3c2)C1` [US20230312550, Example 140], the koff was determined as 0.00016 s⁻¹ and the kon was 2.6e+06 M⁻¹ s⁻¹.

For the compound `CC1(CC(F)(F)F)CN(c2ccc3nccc(C(=O)NCC(=O)N4CSC[C@H]4C#N)c3c2)C1` [US20230312550, Example 131], the koff was found to be 0.00014 s⁻¹ and the kon worked out at 1.8e+06 M⁻¹ s⁻¹.

`N#C[C@@H]1CSCN1C(=O)CNC(=O)c1ccnc2ccc(N3CC(CCF)C3)cc12` [US20230312550, Example 146]: the koff was 0.00017 s⁻¹ and the kon amounted to 1.4e+06 M⁻¹ s⁻¹.

Consider `COC[C@@H]1CN(c2ccc3nccc(C(=O)NCC(=O)N4CSC[C@H]4C#N)c3c2)CCO1` [US20230312550, Example 93], for which the koff was found to be 8e-05 s⁻¹ and the kon turned out to be 1.8e+06 M⁻¹ s⁻¹.

In the case of `N#C[C@@H]1CSCN1C(=O)CNC(=O)c1ccnc2ccc(N3CCC(C(F)(F)F)CC3)cc12` [US20230312550, Example 39], the koff came to 0.00016 s⁻¹ and the kon came to 4.9e+06 M⁻¹ s⁻¹.

In the case of `N#C[C@@H]1CSCN1C(=O)CNC(=O)c1ccnc2ccc(N3CC[C@H](F)C3)cc12` [US20230312550, Example 51], the koff was 0.00011 s⁻¹ and the kon was 5.6e+06 M⁻¹ s⁻¹.

Consider `N#C[C@@H]1CSCN1C(=O)CNC(=O)c1ccnc2ccc(-n3ccnc3-c3ccccc3)cc12` [US20230312550, Example 217], for which the koff came to 0.0013 s⁻¹ and the kon came out at 1.8e+06 M⁻¹ s⁻¹.

As to `CC1(F)CCN(c2ccc3nccc(C(=O)NCC(=O)N4CSC[C@H]4C#N)c3c2)CC1` [US20230312550, Example 34], the koff was found to be 8.2e-05 s⁻¹ and the kon was found to be 2.2e+06 M⁻¹ s⁻¹.

Regarding `CC1(C)CN(c2ccc3nccc(C(=O)NCC(=O)N4CSC[C@H]4C#N)c3c2)C(=O)O1` [US20230312550, Example 13], the koff turned out to be 7.6e-05 s⁻¹ and the association rate constant (kon) was found to be 9.2e+06 M⁻¹ s⁻¹.

Compound `N#C[C@@H]1CSCN1C(=O)CNC(=O)c1ccnc2ccc(N3CCOc4ccccc43)cc12` [US20230312550, Example 6] gave a koff of 18 s⁻¹.

For the compound `N#C[C@@H]1CSCN1C(=O)CNC(=O)c1ccnc2ccc(N3CC(C(F)(F)F)C3)cc12` [US20230312550, Example 26], the koff stood at 6.5e-05 s⁻¹ and the kon came to 1.3e+06 M⁻¹ s⁻¹.

Regarding `N#C[C@@H]1CSCN1C(=O)CNC(=O)c1ccnc2ccc(N3CCCC4(CC4)C3)cc12` [US20230312550, Example 46], the koff stood at 6.2e-05 s⁻¹ and the kon is 3e+06 M⁻¹ s⁻¹.

Take `N#C[C@@H]1CSCN1C(=O)CNC(=O)c1ccnc2ccc(N3CCCC[C@H]3CF)cc12` [US20230312550, Example 45]: the off-rate constant (koff) was 0.00018 s⁻¹ and the kon came to 5.4e+06 M⁻¹ s⁻¹.

Regarding `N#C[C@@H]1CSCN1C(=O)CNC(=O)c1ccnc2ccc(N3CC4(CC4)C3)cc12` [US20230312550, Example 164], the koff stood at 3.6e-05 s⁻¹ and the kon amounted to 1.4e+06 M⁻¹ s⁻¹.

For `COc1ccc(-c2ccc3nccc(C(=O)NCC(=O)N4CSC[C@H]4C#N)c3c2)cn1` [US20230312550, Example 178], the koff is 0.00017 s⁻¹ and the kon stood at 3.1e+06 M⁻¹ s⁻¹.

For `N#C[C@@H]1CSCN1C(=O)CNC(=O)c1ccnc2ccc(N3CC[C@@H](F)C3)cc12` [US20230312550, Example 52], the off-rate (koff) turned out to be 0.00019 s⁻¹ and the kon came to 6.8e+06 M⁻¹ s⁻¹.

Take `CC1(O)CN(c2ccc3nccc(C(=O)NCC(=O)N4CSC[C@H]4C#N)c3c2)C1` [US20230312550, Example 165]: the dissociation rate constant (koff) is 6.3e-05 s⁻¹ and the kon was 1.2e+06 M⁻¹ s⁻¹.

Turning to `N#C[C@@H]1CSCN1C(=O)CNC(=O)c1ccnc2ccc(N3CCCCC3=O)cc12` [US20230312550, Example 14], the koff is 6.4e-05 s⁻¹ and the kon was determined as 1.3e+06 M⁻¹ s⁻¹.

As for `N#C[C@@H]1CSCN1C(=O)CNC(=O)c1ccnc2ccc(N3CCC[C@@H]3C3CC3)cc12` [US20230312550, Example 199], the koff is 0.00026 s⁻¹ and the kon was found to be 2.3e+06 M⁻¹ s⁻¹.

On to `N#C[C@@H]1CSCN1C(=O)CNC(=O)c1ccnc2ccc(N3CC(OC(F)(F)F)C3)cc12` [US20230312550, Example 132], for which the koff was 0.00014 s⁻¹ and the on-rate (kon) came to 270000 M⁻¹ s⁻¹.

For `N#C[C@@H]1CSCN1C(=O)CNC(=O)c1ccnc2ccc(N3CCC(F)(F)CC3)cc12` [US20230312550, Example 35], the koff stood at 0.0001 s⁻¹ and the kon came to 900000 M⁻¹ s⁻¹.
